# Columns and labels:
# CamA [1] = molecular target: T1, CamA (Clostridioides difficile, UniProt Q183J3); experiment: Isothermal titration calorimetry; format: binding
# T1 sequence (Q183J3 1-577): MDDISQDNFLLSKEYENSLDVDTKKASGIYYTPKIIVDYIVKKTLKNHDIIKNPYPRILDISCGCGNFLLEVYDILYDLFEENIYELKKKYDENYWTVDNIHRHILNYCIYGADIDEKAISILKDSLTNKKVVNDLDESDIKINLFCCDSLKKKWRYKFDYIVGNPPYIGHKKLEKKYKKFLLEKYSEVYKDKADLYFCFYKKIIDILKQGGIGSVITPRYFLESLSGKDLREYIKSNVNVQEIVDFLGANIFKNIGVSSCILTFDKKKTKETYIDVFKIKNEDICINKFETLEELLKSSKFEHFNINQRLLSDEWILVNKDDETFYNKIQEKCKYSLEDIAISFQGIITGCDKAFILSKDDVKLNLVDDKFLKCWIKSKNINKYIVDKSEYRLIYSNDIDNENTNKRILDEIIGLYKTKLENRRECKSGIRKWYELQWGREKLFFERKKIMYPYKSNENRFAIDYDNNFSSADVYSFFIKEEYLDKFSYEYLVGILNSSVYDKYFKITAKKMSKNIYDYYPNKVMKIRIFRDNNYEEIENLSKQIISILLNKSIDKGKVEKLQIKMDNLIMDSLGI
# CamA [2] = molecular target: T1, CamA; format: biochemical
# MettL3-MettL14 = MettL3-MettL14 (Homo sapiens, UniProt Q86U44); experiment: Selectivity assay, MettL3-MettL14; format: biochemical; conditions: [I] = 10 μM, [SAM] = 20 μM, 5 mM NaCl, or CamA conditions
# CcrM = CcrM (Caulobacter vibrioides, UniProt P0CAW2); format: biochemical, Caulobacter crescentus
# Dam = molecular target: T2, Dam (Escherichia coli, UniProt P0AEE8); format: biochemical
# T2 sequence (P0AEE8 1-278): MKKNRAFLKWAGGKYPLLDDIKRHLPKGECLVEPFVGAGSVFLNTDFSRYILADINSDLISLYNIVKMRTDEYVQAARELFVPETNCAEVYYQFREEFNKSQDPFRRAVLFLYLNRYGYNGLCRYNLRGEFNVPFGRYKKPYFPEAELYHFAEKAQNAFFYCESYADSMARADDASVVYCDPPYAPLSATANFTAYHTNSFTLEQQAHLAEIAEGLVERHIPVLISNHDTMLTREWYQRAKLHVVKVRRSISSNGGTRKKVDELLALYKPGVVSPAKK
# Dnmt3a-Dnmt3L = Dnmt3a-Dnmt3L (Mus musculus, UniProt O88508); format: biochemical
# PCIF1 = PCIF1 (Homo sapiens, UniProt Q9H4Z3); format: biochemical
# Sequence of PCIF1 (Q9H4Z3 whole entry): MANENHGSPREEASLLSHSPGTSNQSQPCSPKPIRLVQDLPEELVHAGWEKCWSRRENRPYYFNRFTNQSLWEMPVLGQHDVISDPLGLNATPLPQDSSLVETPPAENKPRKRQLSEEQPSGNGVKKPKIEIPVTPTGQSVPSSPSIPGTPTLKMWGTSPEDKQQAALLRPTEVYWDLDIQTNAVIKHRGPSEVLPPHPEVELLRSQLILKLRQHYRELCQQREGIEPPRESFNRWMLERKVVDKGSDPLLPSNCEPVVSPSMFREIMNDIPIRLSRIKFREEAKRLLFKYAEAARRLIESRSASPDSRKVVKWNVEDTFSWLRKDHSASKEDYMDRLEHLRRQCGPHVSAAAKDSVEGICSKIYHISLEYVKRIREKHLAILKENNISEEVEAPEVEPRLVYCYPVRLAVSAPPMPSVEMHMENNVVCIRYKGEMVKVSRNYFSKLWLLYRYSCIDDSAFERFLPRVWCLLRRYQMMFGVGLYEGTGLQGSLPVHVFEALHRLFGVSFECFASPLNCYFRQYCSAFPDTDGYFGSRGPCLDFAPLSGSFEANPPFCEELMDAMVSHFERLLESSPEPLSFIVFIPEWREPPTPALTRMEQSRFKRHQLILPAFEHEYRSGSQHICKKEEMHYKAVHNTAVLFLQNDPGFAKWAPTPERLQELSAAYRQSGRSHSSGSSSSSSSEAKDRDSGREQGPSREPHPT
# Sequence of CcrM (P0CAW2 whole entry): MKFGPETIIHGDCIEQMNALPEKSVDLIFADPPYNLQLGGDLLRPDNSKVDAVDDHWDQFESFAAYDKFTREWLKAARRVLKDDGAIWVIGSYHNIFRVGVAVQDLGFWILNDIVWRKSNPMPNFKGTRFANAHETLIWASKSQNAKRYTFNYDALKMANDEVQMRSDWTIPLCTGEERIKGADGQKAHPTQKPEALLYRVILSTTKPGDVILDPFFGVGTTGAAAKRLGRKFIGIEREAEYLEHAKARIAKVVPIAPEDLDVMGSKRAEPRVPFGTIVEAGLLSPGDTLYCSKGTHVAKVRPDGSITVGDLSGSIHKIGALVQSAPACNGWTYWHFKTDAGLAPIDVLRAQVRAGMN
# Sequence of MettL3-MettL14 (Q86U44 whole entry): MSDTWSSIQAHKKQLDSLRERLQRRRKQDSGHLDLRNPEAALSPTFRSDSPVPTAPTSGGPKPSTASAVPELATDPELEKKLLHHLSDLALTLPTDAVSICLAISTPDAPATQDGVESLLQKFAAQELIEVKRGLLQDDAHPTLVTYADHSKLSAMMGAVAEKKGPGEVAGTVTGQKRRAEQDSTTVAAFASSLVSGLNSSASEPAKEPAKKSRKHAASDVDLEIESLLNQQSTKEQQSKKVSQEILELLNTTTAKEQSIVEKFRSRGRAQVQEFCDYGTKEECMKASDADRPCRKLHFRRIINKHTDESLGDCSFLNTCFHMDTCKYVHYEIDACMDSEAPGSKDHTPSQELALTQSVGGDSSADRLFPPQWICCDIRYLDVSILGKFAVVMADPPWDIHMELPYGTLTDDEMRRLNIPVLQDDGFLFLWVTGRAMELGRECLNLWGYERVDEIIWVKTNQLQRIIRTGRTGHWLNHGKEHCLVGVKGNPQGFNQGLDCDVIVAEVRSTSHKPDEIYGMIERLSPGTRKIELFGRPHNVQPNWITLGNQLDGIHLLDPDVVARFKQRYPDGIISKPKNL
# Sequence of MettL3-MettL14 (Q9HCE5 whole entry partner): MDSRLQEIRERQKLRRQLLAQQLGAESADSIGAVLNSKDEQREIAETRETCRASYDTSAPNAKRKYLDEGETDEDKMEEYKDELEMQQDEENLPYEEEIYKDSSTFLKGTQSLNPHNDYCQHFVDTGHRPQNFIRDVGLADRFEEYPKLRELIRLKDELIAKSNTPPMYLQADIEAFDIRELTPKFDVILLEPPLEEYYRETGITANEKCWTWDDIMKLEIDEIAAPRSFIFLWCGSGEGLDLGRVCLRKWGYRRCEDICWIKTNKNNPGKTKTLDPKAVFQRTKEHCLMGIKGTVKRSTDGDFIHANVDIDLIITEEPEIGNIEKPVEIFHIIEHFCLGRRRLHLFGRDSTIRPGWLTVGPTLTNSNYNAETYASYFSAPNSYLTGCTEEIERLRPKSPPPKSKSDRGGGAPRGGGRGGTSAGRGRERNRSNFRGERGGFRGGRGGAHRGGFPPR
molecule,measurement,setting,value
"5′-methylthioadenosine [MTA, reference compound]","enhanced binding, fold",CamA [1]; compared to sinefungin,~2 ×
same,"stronger binding, fold",CamA [1]; than adenosine,> 7 ×
OC[C@H]1O[C@@H](n2cnc3c(NCc4ccc(O)cc4)ncnc32)[C@H](O)[C@@H]1O [Compound 3],"improved IC50, fold",CamA [2],~2 ×
same,"tighter binding in KD, fold",CamA [1]; compared to compound 2,2.6 ×
"OC[C@H]1O[C@@H](n2cnc3c(NCCCc4ccccc4)ncnc32)[C@H](O)[C@@H]1O [Compound 14, (2R,3S,4R,5R)-2-(Hydroxymethyl)-5-(6-((3-phenylpropyl)amino)-9H-purin-9-yl)tetrahydrofuran-3,4-diol]","lower IC50 value, fold",CamA [2],~21 ×
same,"lower KD value, fold",CamA [1]; compared to compound 1,~26 ×
"Nc1ccc(CCCNc2ncnc3c2ncn3[C@@H]2O[C@H](CO)[C@@H](O)[C@H]2O)cc1 [Compound 15, (2R,3R,4S,5R)-2-(6-((3-(4-Aminophenyl)propyl)amino)-9H-purin-9-yl)-5-(hydroxymethyl)tetrahydrofuran-3,4-diol]","enhanced binding, fold",CamA [1]; compared to 2 and 9,9–12 ×
"OC[C@H]1O[C@@H](n2cnc3c(NCCCCCCc4ccccc4)ncnc32)[C@H](O)[C@@H]1O [Compound 21, (2R,3S,4R,5R)-2-(Hydroxymethyl)-5-(6-((6-phenylhexyl)amino)-9H-purin-9-yl)tetrahydrofuran-3,4-diol]",relative inhibition of CamA activity,CamA [2],decreased the inhibition potency
"CC(C)(C)OC(=O)NCCC1CCN(c2ncnc3c2ncn3[C@@H]2O[C@H](CO)[C@@H](O)[C@H]2O)CC1 [Compound 40, tert-Butyl-(2-(1-(9-((2R,3R,4S,5R)-3,4-dihydroxy-5-(hydroxymethyl)tetrahydrofuran-2-yl)-9H-purin-6-yl)piperidin-4-yl)ethyl)carbamate]",CamA inhibition,CamA [2],loss of inhibition
same,relative inhibition of CamA activity,CamA [2],loss of inhibition
"CC(C)(C)OC(=O)N1CCC2(CCN(c3ncnc4c3ncn4[C@@H]3O[C@H](CO)[C@@H](O)[C@H]3O)CC2)C1 [Compound 41, tert-Butyl-8-(9-((2R,3R,4S,5R)-3,4-dihydroxy-5-(hydroxymethyl)tetrahydrofuran-2-yl)-9H-purin-6-yl)-2,8-diazaspiro[4.5]decane-2-carboxylate]",CamA inhibition,CamA [2],loss of inhibition
same,relative inhibition of CamA activity,CamA [2],loss of inhibition
"OC[C@H]1O[C@@H](n2cnc3c(NCCCC4CCNCC4)ncnc32)[C@H](O)[C@@H]1O [Compound 42, (2R,3S,4R,5R)-2-(Hydroxymethyl)-5-(6-((3-(piperidin-4-yl)propyl)amino)-9H-purin-9-yl)tetrahydrofuran-3,4-diol]","lower potency in inhibiting CamA, fold",CamA [2],~10 fold
"CC(C)N(CCCNC(=O)Nc1ccc(C(C)(C)C)cc1)C[C@H]1O[C@@H](n2cc(Br)c3c(N)ncnc32)[C@H](O)[C@@H]1O [SGC0946, reference compound]",inhibition of CamA activity,CamA [2],inhibits CamA activity completely
same,"stronger inhibition, fold in IC50",CamA [2],~9 ×
same,"improved binding, fold in KD",CamA [1]; vs EPZ004777,~3 ×
"O=C(NCc1cn2cc(CNCC3CCCCC3)ccc2n1)c1cc(=O)n2ccccc2n1 [STM2457, reference compound]",effect on CamA activity,CamA [2],had no effect on CamA activity
same,inhibition of MettL3-MettL14,MettL3-MettL14,inhibited
"Nc1ncnc2c1ncn2[C@@H]1O[C@H](C[C@@H](N)CC[C@H](N)C(=O)O)[C@@H](O)[C@H]1O [sinefungin, reference compound]",effect on CamA activity,CamA [2],inhibiting CamA
same,inhibition of CcrM,CcrM,showed measurable inhibition
same,inhibition of Dam,Dam,showed measurable inhibition
same,inhibition of Dnmt3a-Dnmt3L,Dnmt3a-Dnmt3L,showed measurable inhibition
same,inhibition of PCIF1,PCIF1,showed measurable inhibition
